Reference: patent US12194095B2, “Combinations and uses thereof” (Incyte Corporation, priority 2015, dated 2025)
Entries after “also recorded” stand apart in the source; their conditions may differ.

Test system: MEC-1 cells
Test: ADCC cytotoxicity (target cell killing) of MEC-1 cells with NK cells, MOR00208 and Idelalisib alone and in combination
Assay type: cell-based, human
Procedure: The cytotoxicity of MOR00208 and Idelalisib alone and in combination were tested in the MEC-1 cell line.
Idelalisib is a phosphoinositide 3-kinase inhibitor; more specifically, it blocks P110δ, the delta isoform of the enzyme phosphoinositide 3-kinase. […] MOR00208 targets CD19 and mediates target cell killing via ADCC.
The following were used as controls: a) MEC-1 cells+RefmAb33+DMSO+NK cells, b) MEC-1 cells+DMSO+NK cells, c) MEC-1 cells+DMSO.
Target cell killing was measured using the following parameters: Idelalisib at concentrations of 0.3, 1, 3 and 10 μM; MOR00208 at concentrations of 1.5, 0.015 and 0.0015 μg/ml and the combination of MOR00208 and Idelalisib at the same concentrations.
In the Idelalisib group, […] in the MOR00208+Idelalisib combination group, target cells were pre-treated with Idelalisib for 7 days prior to the ADCC assay measurements. The target cells were counted and stained using 10 μM CFSE end concentration. For DMSO treated target cells, an effector:target (E:T) ratio of 2:1 is chosen, corresponding to a cell density of 5×10^5/ml. The proliferative effect on target cells caused by Idelalisib treatment was included by adjusting the E:T ratio in inhibitor treated cells. The NK cells are counted and adjusted to 1×10^6/ml. The target cell killing assays were performed as follows: using 96 well plates, 100 μl of target cell suspension was added per well, followed by 100 μl cell suspension of NK cells to each well resulting in an E:T ratio of 2:1. The antibodies were diluted in a range of 10-0.00001 nM (corresponding to 1.5-0.0000015 μg/ml) in medium. Cells were centrifuged and target:effector cell-pellets were re-suspended in 100 μl antibody-containing medium or the according control solution. The assay was incubated for 4 h in CO2-incubator at 37° C. After 10 min incubation on ice, 50 μl DAPI solution was added to each well (final concentration 1 μg/ml) and incubated on ice for 10 min. The cell killing measurements were performed with FACS-Verse. Dead target cells were DAPI positive.
In total, six experiments were performed in order to determine the mediation of ADCC on MEC-1 cells by the combination of MOR00208 and Idelalisib. […] The autoreactivity of the NK cells prevented a proper analysis in those two experiments.
The % dead cells (raw data) from Tables 1-16 was analysed in the following way:
[formula] [formula] [formula] where A is the treatment with MOR00208 alone; B is the treatment with Idelalisib alone; C is response to the control DMSO+RefMab33; AB is the combination of treatments A and B.
In order to confirm the results of synergy as calculated using Clarke et al. above, the Combination Index (CI) method was applied to the % dead cells (raw data) of Tables 1-16. For CI calculations, we used 0.3, 1, 3 and 10 μM Idelalisib and three MOR208 concentrations (1.5, 0.015 and 0.0015 μg/ml).

[1] = Experiment 1, Idelalisib 0.3 μM, MOR00208 0.01 nM (0.0015 μg/ml)
[2] = Experiment 1, Idelalisib 0.3 μM, MOR00208 0.1 nM (0.015 μg/ml)
[3] = Experiment 1, Idelalisib 0.3 μM, MOR00208 10 nM (1.5 μg/ml)
[4] = Experiment 1, Idelalisib 1 μM, MOR00208 0.01 nM (0.0015 μg/ml)
[5] = Experiment 1, Idelalisib 1 μM, MOR00208 0.1 nM (0.015 μg/ml)
[6] = Experiment 1, Idelalisib 1 μM, MOR00208 10 nM (1.5 μg/ml)
[7] = Experiment 1, Idelalisib 3 μM, MOR00208 0.01 nM (0.0015 μg/ml)
[8] = Experiment 1, Idelalisib 3 μM, MOR00208 0.1 nM (0.015 μg/ml)
[9] = Experiment 1, Idelalisib 3 μM, MOR00208 10 nM (1.5 μg/ml)
[10] = Experiment 1, Idelalisib 10 μM, MOR00208 0.01 nM (0.0015 μg/ml)
[11] = Experiment 1, Idelalisib 10 μM, MOR00208 0.1 nM (0.015 μg/ml)
[12] = Experiment 1, Idelalisib 10 μM, MOR00208 10 nM (1.5 μg/ml)
[13] = Experiment 2, Idelalisib 0.3 μM, MOR00208 0.01 nM (0.0015 μg/ml)
[14] = Experiment 2, Idelalisib 0.3 μM, MOR00208 0.1 nM (0.015 μg/ml)
[15] = Experiment 2, Idelalisib 0.3 μM, MOR00208 10 nM (1.5 μg/ml)
[16] = Experiment 2, Idelalisib 1 μM, MOR00208 0.01 nM (0.0015 μg/ml)
[17] = Experiment 2, Idelalisib 1 μM, MOR00208 01 nM (0.015 μg/ml)
[18] = Experiment 2, Idelalisib 1 μM, MOR00208 10 nM (1.5 μg/ml)
[19] = Experiment 2, Idelalisib 3 μM, MOR00208 0.01 nM (0.0015 μg/ml)
[20] = Experiment 2, Idelalisib 3 μM, MOR00208 0.1 nM (0.015 μg/ml)
[21] = Experiment 2, Idelalisib 3 μM, MOR00208 10 nM (1.5 μg/ml)
[22] = Experiment 2, Idelalisib 10 μM, MOR00208 0.01 nM (0.0015 μg/ml)
[23] = Experiment 2, Idelalisib 10 μM, MOR00208 0.1 nM (0.015 μg/ml)
[24] = Experiment 2, Idelalisib 10 μM, MOR00208 10 nM (1.5 μg/ml)
[25] = Experiment 3, Idelalisib 0.3 μM, MOR00208 0.01 nM (0.0015 μg/ml)
[26] = Experiment 3, Idelalisib 0.3 μM, MOR00208 0.1 nM (0.015 μg/ml)
[27] = Experiment 3, Idelalisib 0.3 μM, MOR00208 10 nM (1.5 μg/ml)
[28] = Experiment 3, Idelalisib 1 μM, MOR00208 0.01 nM (0.0015 μg/ml)
[29] = Experiment 3, Idelalisib 1 μM, MOR00208 0.1 nM (0.015 μg/ml)
[30] = Experiment 3, Idelalisib 1 μM, MOR00208 10 nM (1.5 μg/ml)
[31] = Experiment 3, Idelalisib 3 μM, MOR00208 0.01 nM (0.0015 μg/ml)
[32] = Experiment 3, Idelalisib 3 μM, MOR00208 0.1 nM (0.015 μg/ml)
[33] = Experiment 3, Idelalisib 3 μM, MOR00208 10 nM (1.5 μg/ml)
[34] = Experiment 3, Idelalisib 10 μM, MOR00208 0.01 nM (0.0015 μg/ml)
[35] = Experiment 3, Idelalisib 10 μM, MOR00208 0.1 nM (0.015 μg/ml)
[36] = Experiment 3, Idelalisib 10 μM, MOR00208 10 nM (1.5 μg/ml)
[37] = Experiment 4, Idelalisib 0.3 μM, MOR00208 0.01 nM (0.0015 μg/ml)
[38] = Experiment 4, Idelalisib 0.3 μM, MOR00208 0.1 nM (0.015 μg/ml)
[39] = Experiment 4, Idelalisib 0.3 μM, MOR00208 10 nM (1.5 μg/ml)
[40] = Experiment 4, Idelalisib 1 μM, MOR00208 0.01 nM (0.0015 μg/ml)
[41] = Experiment 4, Idelalisib 1 μM, MOR00208 0.1 nM (0.015 μg/ml)
[42] = Experiment 4, Idelalisib 1 μM, MOR00208 10 nM (1.5 μg/ml)
[43] = Experiment 4, Idelalisib 3 μM, MOR00208 0.01 nM (0.0015 μg/ml)
[44] = Experiment 4, Idelalisib 3 μM, MOR00208 0.1 nM (0.015 μg/ml)
[45] = Experiment 4, Idelalisib 3 μM, MOR00208 10 nM (1.5 μg/ml)
[46] = Experiment 4, Idelalisib 10 μM, MOR00208 0.01 nM (0.0015 μg/ml)
[47] = Experiment 4, Idelalisib 10 μM, MOR00208 0.1 nM (0.015 μg/ml)
[48] = Experiment 4, Idelalisib 10 μM, MOR00208 10 nM (1.5 μg/ml)

CC[C@H](Nc1ncnc2nc[nH]c12)c1nc2cccc(F)c2c(=O)n1-c1ccccc1 [Idelalisib]
effect of the Idelalisib group greater than the control (Experiment 1, Tables 1-3): ~4% | % dead cells [1]: 6.8% | % dead cells [2]: 6.8% | % dead cells [3]: 6.8% | % dead cells [4]: 10.8% | % dead cells [5]: 10.8% | % dead cells [6]: 10.8% | % dead cells [7]: 11.3% | % dead cells [8]: 11.3% | % dead cells [9]: 11.3% | % dead cells [10]: 11.6% | % dead cells [11]: 11.6% | % dead cells [12]: 11.6% | % dead cells [13]: 20.8% | % dead cells [14]: 20.8% | % dead cells [15]: 20.8% | % dead cells [16]: 20.7% | % dead cells [17]: 20.7% | % dead cells [18]: 20.7% | % dead cells [19]: 14.6% | % dead cells [20]: 14.6% | % dead cells [21]: 14.6% | % dead cells [22]: 14.7% | % dead cells [23]: 14.7% | % dead cells [24]: 14.7% | % dead cells [25]: 17.3% | % dead cells [26]: 17.3% | % dead cells [27]: 17.3% | % dead cells [28]: 18.7% | % dead cells [29]: 18.7% | % dead cells [30]: 18.7% | % dead cells [31]: 14.0% | % dead cells [32]: 14.0% | % dead cells [33]: 14.0% | % dead cells [34]: 11.5% | % dead cells [35]: 11.5% | % dead cells [36]: 11.5% | % dead cells [37]: 15.5% | % dead cells [38]: 15.5% | % dead cells [39]: 15.5% | % dead cells [40]: 15.9% | % dead cells [41]: 15.9% | % dead cells [42]: 15.9% | % dead cells [43]: 13.8% | % dead cells [44]: 13.8% | % dead cells [45]: 13.8% | % dead cells [46]: 12.1% | % dead cells [47]: 12.1% | % dead cells [48]: 12.1% | cytotoxic effects against MEC-1 cells (Idelalisib alone): little to no cyctotoxic effects; also recorded: low cytotoxity activity

B1: MOR00208: anti-CD19 antibody; variable domains in FIG. 1, Fc regions in FIG. 2 (antibody)
heavy: EVQLVESGGGLVKPGGSLKLSCAASGYTFTSYVMHWVRQAPGKGLEWIGYINPYNDGTKYNEKFQGRVTISSDKSISTAYMELSSLRSEDTAMYYCARGTYYYGTRVFDYWGQGTLVTVSSASTKGPSVFPLAPSSKSTSGGTAALGCLVKDYFPEPVTVSWNSGALTSGVHTFPAVLQSSGLYSLSSVVTVPSSSLGTQTYICNVNHKPSNTKVDKKVEPKSCDKTHTCPPCPAPELLGGPDVFLFPPKPKDTLMISRTPEVTCVVVDVSHEDPEVQFNWYVDGVEVHNAKTKPREEQFNSTFRVVSVLTVVHQDWLNGKEYKCKVSNKALPAPEEKTISKTKGQPREPQVYTLPPSREEMTKNQVSLTCLVKGFYPSDIAVEWESNGQPENNYKTTPPMLDSDGSFFLYSKLTVDKSRWQQGNVFSCSVMHEALHNHYTQKSLSLSPGK
light: DIVMTQSPATLSLSPGERATLSCRSSKSLQNVNGNTYLYWFQQKPGQSPQLLIYRMSNLNSGVPDRFSGSGSGTEFTLTISSLEPEDFAVYYCMQHLEYPITFGAGTKLEIKRTVAAPSVFIFPPSDEQLKSGTASVVCLLNNFYPREAKVQWKVDNALQSGNSQESVTEQDSKDSTYSLSSTLTLSKADYEKHKVYACEVTHQGLSSPVTKSFNRGEC
% dead cells [1]: 40.3% | % dead cells [2]: 63.1% | % dead cells [3]: 62.9% | % dead cells [4]: 40.3% | % dead cells [5]: 63.1% | % dead cells [6]: 62.9% | % dead cells [7]: 40.3% | % dead cells [8]: 63.1% | % dead cells [9]: 62.9% | % dead cells [10]: 40.3% | % dead cells [11]: 63.1% | % dead cells [12]: 62.9% | % dead cells [13]: 52.9% | % dead cells [14]: 78.9% | % dead cells [15]: 85.6% | % dead cells [16]: 52.9% | % dead cells [17]: 78.9% | % dead cells [18]: 85.6% | % dead cells [19]: 52.9% | % dead cells [20]: 78.9% | % dead cells [21]: 85.6% | % dead cells [22]: 52.9% | % dead cells [23]: 78.9% | % dead cells [24]: 85.6% | % dead cells [25]: 43.5% | % dead cells [26]: 59.5% | % dead cells [27]: 62.0% | % dead cells [28]: 43.5% | % dead cells [29]: 59.5% | % dead cells [30]: 62.0% | % dead cells [31]: 43.5% | % dead cells [32]: 59.5% | % dead cells [33]: 62.0% | % dead cells [34]: 43.5% | % dead cells [35]: 59.5% | % dead cells [36]: 62.0% | % dead cells [37]: 56.3% | % dead cells [38]: 73.3% | % dead cells [39]: 74.6% | % dead cells [40]: 56.3% | % dead cells [41]: 73.3% | % dead cells [42]: 74.6% | % dead cells [43]: 56.3% | % dead cells [44]: 73.3% | % dead cells [45]: 74.6% | % dead cells [46]: 56.3% | % dead cells [47]: 73.3% | % dead cells [48]: 74.6%
